The values below come from patent publication US6916607B2, “PEPTIDES AND PO[…] FROM THE SU[…] OF THE RAT COR[…] […] COR[…] USES OF THESE PRODUCTS FOR DIAGNOSIS FOR DETECTION OR T[…]” (Institute Pasteur, priority 1988, dated 2005).

The assay concerns mRNA coding for SMR1 in the SMG. The assay can be described thus: Regulation of the accumulation of mRNA coding for SMR1 in the SMG of the rat by androgens (RNA transfer and hybridization with SMR1 cDNA probe). The format is in vivo, Wistar rats. As for the experimental part:
10 weeks old male and female Wistar rats were obtained from Iffa-Credo. The androgens were removed by castration and 10 days later 35 mg of testosterone (Sterandryl retard, Roussel) were injected by the intraperitoneal route in the cases indicated. In the cases indicated, the same dose of testosterone was administered to female rats. 8 weeks old DBA/2 and “Swiss” mice were obtained from the Pasteur Institute.
The RNA was prepared from rat and mouse tissues as described in the literature (Tronik D. et al. 1987, EMBO J. 6, 983-987). The in vitro translation of the RNAs was carried out by using the mRNA-dependent translation system as a lysate in the presence of mRNA-dependent reticulocytes (Pelham H. RB et al., 1976, Eur. J. Biochem. 67, 247-256). The products were analysed by electrophoresis on a denaturing polyacrylamide-NaDodSO4 gel. […]
Furthermore, various amounts (as indicated in the figure) of RNA from the SMG of male rats and female rats were subjected to electrophoresis on a 2% agarose-formaldehyde gel, they were transferred to filters and hybridized with the cDNA probe coding for SMR1. […] As is apparent in part B, the mRNA coding for SMR1 accumulates in very large quantities in the SMG of male Wistar rats, since an amount as low as 1.5 ng of total RNA was sufficient to give a hybridization signal. […]

Consider `C[C@]12CC[C@H]3[C@@H](CCC4=CC(=O)CC[C@@]43C)[C@@H]1CC[C@@H]2O` [testosterone], for which the “accumulation of mRNA coding for SMR1 in the SMG” value (adult female rats, same dose (35 mg) of testosterone) is “caused the accumulation of mRNA coding for SMR1 in amounts similar to that observed in the males”. In addition, the “amount of mRNA coding for SMR1 in the SMG” value (castrated male rats, 35 mg testosterone by the intraperitoneal route 10 days after castration) was “restored the amount of mRNA coding for SMR1 to the same value as that observed in the non-castrated males”.
